# From PubChem BioAssay (NCI)
#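 Five compound concentrations were applied to cells in 96-well plates for 48 hours; endpoints were derived by simple linear interpolation of the resulting dose-response curve. GI50 = concentration required for 50% inhibition of growth. TGI: total growth inhibition.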
# Columns and labels:
# Assay in all cases: NCI tumour cell line growth inhibition, 48 h
# MCF7 breast = tested on: MCF7 breast
# NCI/ADR-RES ovarian = tested on: NCI/ADR-RES ovarian
# HT29 colon = tested on: HT29 colon
# OVCAR-4 ovarian = tested on: OVCAR-4 ovarian
# DU-145 prostate = tested on: DU-145 prostate
# SF-295 CNS = tested on: SF-295 CNS
# HCT-15 colon = tested on: HCT-15 colon
# CAKI-1 renal = tested on: CAKI-1 renal
# UACC-257 melanoma = tested on: UACC-257 melanoma
# SN12C renal = tested on: SN12C renal
# U251 CNS = tested on: U251 CNS
# HL-60(TB) leukemia = tested on: HL-60(TB) leukemia
# A549 NSCLC = tested on: A549 NSCLC
# NCI-H522 lung = tested on: NCI-H522 lung
# UO-31 renal = tested on: UO-31 renal
# SNB-19 CNS = tested on: SNB-19 CNS
# KM12 colon = tested on: KM12 colon
# LOX IMVI melanoma = tested on: LOX IMVI melanoma
# HS 578T breast = tested on: HS 578T breast
# MOLT-4 leukemia = tested on: MOLT-4 leukemia
# SNB-75 CNS = tested on: SNB-75 CNS
# OVCAR-3 ovarian = tested on: OVCAR-3 ovarian
# HOP-92 NSCLC = tested on: HOP-92 NSCLC
# NCI-H460 lung = tested on: NCI-H460 lung
# OVCAR-5 ovarian = tested on: OVCAR-5 ovarian
# K-562 leukemia = tested on: K-562 leukemia
# HOP-62 NSCLC = tested on: HOP-62 NSCLC
# NCI-H226 lung = tested on: NCI-H226 lung
# CCRF-CEM leukemia = tested on: CCRF-CEM leukemia
# SR leukemia = tested on: SR leukemia
# M14 melanoma = tested on: M14 melanoma
# NCI-H23 lung = tested on: NCI-H23 lung
# ACHN renal = tested on: ACHN renal
# MALME-3M melanoma = tested on: MALME-3M melanoma
# T-47D breast = tested on: T-47D breast
# MDA-MB-435 = tested on: MDA-MB-435
# SK-OV-3 ovarian = tested on: SK-OV-3 ovarian
# SK-MEL-2 melanoma = tested on: SK-MEL-2 melanoma
# TK-10 renal = tested on: TK-10 renal
# BT-549 breast = tested on: BT-549 breast
# COLO 205 colon = tested on: COLO 205 colon
# IGROV1 ovarian = tested on: IGROV1 ovarian
# OVCAR-8 ovarian = tested on: OVCAR-8 ovarian
# UACC-62 melanoma = tested on: UACC-62 melanoma
# HCC-2998 colon = tested on: HCC-2998 colon
# 786-0 renal = tested on: 786-0 renal
# RXF 393 renal = tested on: RXF 393 renal
# RPMI-8226 leukemia = tested on: RPMI-8226 leukemia
# SK-MEL-5 melanoma = tested on: SK-MEL-5 melanoma
# SW-620 colon = tested on: SW-620 colon
# A498 renal = tested on: A498 renal
# SF-268 CNS = tested on: SF-268 CNS
# SK-MEL-28 melanoma = tested on: SK-MEL-28 melanoma
# SF-539 CNS = tested on: SF-539 CNS
# PC-3 prostate = tested on: PC-3 prostate
# HCT-116 colon = tested on: HCT-116 colon
# MDA-MB-231 breast = tested on: MDA-MB-231 breast
smiles,measurement,setting,value
C[C@H](Cn1ncnn1)Nc1ncc2cc(Oc3ccc(F)cc3F)c(=O)n(C)c2n1,GI50,MCF7 breast,> 25 µM
same,TGI,MCF7 breast,> 25 µM
same,GI50,NCI/ADR-RES ovarian,> 25 µM
same,TGI,NCI/ADR-RES ovarian,> 25 µM
same,GI50,HT29 colon,> 25 µM
same,TGI,HT29 colon,> 25 µM
same,GI50,OVCAR-4 ovarian,> 25 µM
same,TGI,OVCAR-4 ovarian,> 25 µM
same,GI50,DU-145 prostate,> 25 µM
same,TGI,DU-145 prostate,> 25 µM
same,GI50,SF-295 CNS,> 25 µM
same,TGI,SF-295 CNS,> 25 µM
same,GI50,HCT-15 colon,> 25 µM
same,TGI,HCT-15 colon,> 25 µM
same,GI50,CAKI-1 renal,> 25 µM
same,TGI,CAKI-1 renal,> 25 µM
same,GI50,UACC-257 melanoma,> 25 µM
same,TGI,UACC-257 melanoma,> 25 µM
same,GI50,SN12C renal,> 25 µM
same,TGI,SN12C renal,> 25 µM
same,GI50,U251 CNS,> 25 µM
same,TGI,U251 CNS,> 25 µM
same,GI50,HL-60(TB) leukemia,> 25 µM
same,TGI,HL-60(TB) leukemia,> 25 µM
same,GI50,A549 NSCLC,> 25 µM
same,TGI,A549 NSCLC,> 25 µM
same,GI50,NCI-H522 lung,> 25 µM
same,TGI,NCI-H522 lung,> 25 µM
same,GI50,UO-31 renal,> 25 µM
same,TGI,UO-31 renal,> 25 µM
same,GI50,SNB-19 CNS,> 25 µM
same,TGI,SNB-19 CNS,> 25 µM
same,GI50,KM12 colon,> 25 µM
same,TGI,KM12 colon,> 25 µM
same,GI50,LOX IMVI melanoma,> 25 µM
same,TGI,LOX IMVI melanoma,> 25 µM
same,GI50,HS 578T breast,> 25 µM
same,TGI,HS 578T breast,> 25 µM
same,GI50,MOLT-4 leukemia,> 25 µM
same,TGI,MOLT-4 leukemia,> 25 µM
same,GI50,SNB-75 CNS,> 25 µM
same,TGI,SNB-75 CNS,> 25 µM
same,GI50,OVCAR-3 ovarian,> 25 µM
same,TGI,OVCAR-3 ovarian,> 25 µM
same,GI50,HOP-92 NSCLC,3.96 µM
same,TGI,HOP-92 NSCLC,> 25 µM
same,GI50,NCI-H460 lung,> 25 µM
same,TGI,NCI-H460 lung,> 25 µM
same,GI50,OVCAR-5 ovarian,> 25 µM
same,TGI,OVCAR-5 ovarian,> 25 µM
same,GI50,K-562 leukemia,> 25 µM
same,TGI,K-562 leukemia,> 25 µM
same,GI50,HOP-62 NSCLC,> 25 µM
same,TGI,HOP-62 NSCLC,> 25 µM
same,GI50,NCI-H226 lung,> 25 µM
same,TGI,NCI-H226 lung,> 25 µM
same,GI50,CCRF-CEM leukemia,> 25 µM
same,TGI,CCRF-CEM leukemia,> 25 µM
same,GI50,SR leukemia,> 25 µM
same,TGI,SR leukemia,> 25 µM
same,GI50,M14 melanoma,> 25 µM
same,TGI,M14 melanoma,> 25 µM
same,GI50,NCI-H23 lung,> 25 µM
same,TGI,NCI-H23 lung,> 25 µM
same,GI50,ACHN renal,> 25 µM
same,TGI,ACHN renal,> 25 µM
same,GI50,MALME-3M melanoma,> 25 µM
same,TGI,MALME-3M melanoma,> 25 µM
same,GI50,T-47D breast,> 25 µM
same,TGI,T-47D breast,> 25 µM
same,GI50,MDA-MB-435,> 25 µM
same,TGI,MDA-MB-435,> 25 µM
same,GI50,SK-OV-3 ovarian,> 25 µM
same,TGI,SK-OV-3 ovarian,> 25 µM
same,GI50,SK-MEL-2 melanoma,> 25 µM
same,TGI,SK-MEL-2 melanoma,> 25 µM
same,GI50,TK-10 renal,> 25 µM
same,TGI,TK-10 renal,> 25 µM
same,GI50,BT-549 breast,> 25 µM
same,TGI,BT-549 breast,> 25 µM
same,GI50,COLO 205 colon,> 25 µM
same,TGI,COLO 205 colon,> 25 µM
same,GI50,IGROV1 ovarian,> 25 µM
same,TGI,IGROV1 ovarian,> 25 µM
same,GI50,OVCAR-8 ovarian,> 25 µM
same,TGI,OVCAR-8 ovarian,> 25 µM
same,GI50,UACC-62 melanoma,> 25 µM
same,TGI,UACC-62 melanoma,> 25 µM
same,GI50,HCC-2998 colon,> 25 µM
same,TGI,HCC-2998 colon,> 25 µM
same,GI50,786-0 renal,> 25 µM
same,TGI,786-0 renal,> 25 µM
same,GI50,RXF 393 renal,> 25 µM
same,TGI,RXF 393 renal,> 25 µM
same,GI50,RPMI-8226 leukemia,> 25 µM
same,TGI,RPMI-8226 leukemia,> 25 µM
same,GI50,SK-MEL-5 melanoma,> 25 µM
same,TGI,SK-MEL-5 melanoma,> 25 µM
same,GI50,SW-620 colon,> 25 µM
same,TGI,SW-620 colon,> 25 µM
same,GI50,A498 renal,> 25 µM
same,TGI,A498 renal,> 25 µM
same,GI50,SF-268 CNS,> 25 µM
same,TGI,SF-268 CNS,> 25 µM
same,GI50,SK-MEL-28 melanoma,> 25 µM
same,TGI,SK-MEL-28 melanoma,> 25 µM
same,GI50,SF-539 CNS,> 25 µM
same,TGI,SF-539 CNS,> 25 µM
same,GI50,PC-3 prostate,> 25 µM
same,TGI,PC-3 prostate,> 25 µM
same,GI50,HCT-116 colon,> 25 µM
same,TGI,HCT-116 colon,> 25 µM
same,GI50,MDA-MB-231 breast,> 25 µM
same,TGI,MDA-MB-231 breast,> 25 µM
